The record followed here is patent US10961309B2, “Reducing systemic regulatory T cell levels or activity for treatment of disease and injury of the CNS” (Yeda Research and Development Co. Ltd, priority 2014, dated 2021).

“Also recorded” adds a separate entry of the source.

For experiment [1], the system named is hippocampal gliosis (GFAP). Nature of the experiment: GFAP immunostaining (astrogliosis). The experiment is classed as in vivo, mouse. The procedure:
Tissue processing and immunohistochemistry were performed on paraffin embedded sectioned mouse (6 μm thick) and human (10 μm thick) brains. For human ICAM-1 staining, primary mouse anti-ICAM (1:20 Abcam; ab2213) antibody was used. Slides were incubated for 10 min with 3% H2O2, and a secondary biotin-conjugated anti-mouse antibody was used, followed by biotin/avidin amplification with Vectastain ABC kit (Vector Laboratories). Subsequently, 3,3′-diaminobenzidine (DAB substrate) (Zytomed kit) was applied; slides were dehydrated and mounted with xylene-based mounting solution. For tissue stainings, mice were transcardially perfused with PBS prior to tissue excision and fixation. CP tissues were isolated under a dissecting microscope (Stemi DV4; Zeiss) from the lateral, third, and fourth ventricles of the brain. […] Microscopic analysis, was performed using a fluorescence microscope (E800; Nikon) or laser-scanning confocal microscope (Carl Zeiss, Inc.). The fluorescence microscope was equipped with a digital camera (DXM 1200F; Nikon), and with either a 20× NA 0.50 or 40× NA 0.75 objective lens (Plan Fluor; Nikon). […] For quantification of staining intensity, total cell and background staining was measured using ImageJ software (NIH), and intensity of specific staining was calculated, as previously described (Burgess et al, 2010). […]

For experiment [2], the system named is 5XFAD AD-Tg mice. Nature of the experiment: Morris water maze (MWM). The experiment is classed as in vivo, mouse. As for the experimental part: Mice were given three trials per day, for 4 consecutive days, to learn to find a hidden platform located 1.5 cm below the water surface in a pool (1.1 m in diameter). The water temperature was kept between 21-22° C. Water was made opaque with milk powder. Within the testing room, only distal visual shape and object cues were available to the mice to aid in location of the submerged platform. The escape latency, i.e., the time required to find and climb onto the platform, was recorded for up to 60 s. Each mouse was allowed to remain on the platform for 15 s and was then removed from the maze to its home cage. […] The inter-trial interval for each mouse was 10 min. On day 5, the platform was removed, and mice were given a single trial lasting 60 s without available escape. On days 6 and 7, the platform was placed in the quadrant opposite the original training quadrant, and the mouse was retrained for three sessions each day. Data were recorded using the EthoVision V7.1 automated tracking system (Noldus Information Technology). Statistical analysis was performed using analysis of variance (ANOVA) and the Bonferroni post-hoc test. All MWM testing was performed between 10 a.m. and 5 p.m. during the lights-off phase.

As for `CC1=C(/C=C/C(C)=C/C=C/C(C)=C/C(=O)O)C(C)(C)CCC1` [ATRA, All-trans retinoic acid], the gliosis in experiment [1] (3 weeks after last ATRA injection, AD-Tg mice) is 2-3 fold increase. For Diphtheria toxin [DTx], the “spatial learning and memory (MWM)” value in experiment [2] (AD-Tg/DTR+ vs DTx-treated AD-Tg/DTR− mice, 3 weeks after last DTx injection) is “better spatial learning/memory performance; also recorded: significant improvement in spatial learning and memory”. Besides, the “hippocampal gliosis (GFAP immunostaining)” value in experiment [1] (AD-Tg/DTR+ mice, 3 weeks after last DTx injection) is given as “reduced astrogliosis; also recorded: reduction in hippocampal gliosis”.

Glatiramer acetate [GA]: in experiment [2] (weekly-GA vs vehicle (PBS), AD-Tg mice, age 6 m), the “spatial learning/memory performance in acquisition, probe and reversal phases of the MWM” value was “better spatial learning/memory performance”. The cognitive performance result in experiment [2] (weekly-GA, 5XFAD AD-Tg mice, MWM 1 week, RAWM 1 and 2 months after last injection) is on record as “improved cognitive performance”.
